Data taken from article PMC10931833, “Simultaneous Purification of Human Interferon Alpha-2b and Serum Albumin Using Bioprivileged Fluorinated Ionic Liquid-Based Aqueous Biphasic Systems” (International Journal of Molecular Sciences, 2024).

Experiments:
BSA [1] = biological target: T1, BSA (Bos taurus, UniProt P02769); experiment: DSC thermal unfolding of BSA in water and aqueous solutions of ABS phase-forming components; assay type: physicochemical, bovine; details: for Tm / ΔG / ΔHcal / ΔHcal/ΔHvH / ΔHvH / ΔS: 1.0 mg/mL BSA
T1 construct: purchased Millipore Sigma-Aldrich
Method: Differential scanning calorimetry (DSC) measurements were performed with Nano DSC equipment, as detailed in Section 3, and used to determine the melting temperature (T m ) and enthalpy ( Δ H) of protein unfolding. DSC analyzes changes in the structure and stability of proteins as thermal transitions at the nanoscale. Using DSC to measure heat capacity as a function of the temperature of a well-studied protein such as BSA provides keen insights into folding and unfolding processes, as well as factors affecting stability. Due to the volume and concentration requirements of the DSC technique, and the constraints in available quantities of IFN- α 2b the DSC experiments on the ABS phase-forming components’ effect on the structural properties of proteins were attained only for BSA.
The T m of BSA, which corresponds to the thermal unfolding transition midpoint, was measured in the absence and presence of the ABS phase-forming components at increasing concentrations (see Figure 1 and Table 2).

BSA [2] = biological target: T1, BSA; experiment: Far-UV CD secondary structure of BSA (CONTIN-LL deconvolution); assay type: physicochemical, bovine; details: 1.0 mg/mL BSA, 25 °C
From the text: Circular dichroism (CD) is widely used to study the secondary structures of proteins, peptides and nucleic acids, because it requires a low concentration sample, is a nondestructive method, allows studying a wide range of variables (temperature, pH, etc.), and provides information on the effect of added ligands on protein folding and interactions. Far-UV (190–260 nm) CD spectroscopy was used to assess the IFN- α 2b and BSA secondary structure since the spectra are characteristic of different structural elements.
(§1) Circular dichroism (CD) spectra were collected in a 10 mm quartz cuvette and a Chirascan spectropolarimeter (Applied Photophysics, UK) at room temperature. All CD spectra were recorded in the far-UV range of 190 to 260 nm at scan rates of 50 nm/min, with 4 accumulations, and a response time of 3 s; CD spectra were collected. For each CD experiment, two distinct duplicates were acquired and combined. BSA was fixed at 1 mg/mL, solvent concentrations ranging from 0.1 to 200 mM were used, and the spectra were translated to MRE after being expressed in terms of molar ellipticity. Spectral deconvolution was carried out with DichroWeb using the CONTIN-LL deconvolution algorithm with the SMP180 reference set.

BSA [3] = biological target: T1, BSA; experiment: CD thermal unfolding (Tm) of BSA; assay type: physicochemical, bovine; details: 1.0 mg/ml BSA, 200 mM component aqueous solution
From the text: The thermal stability assessed by far-UV CD is solely determined through the thermal decay of the alpha-helical structure.

FITC-BSA = biological target: T2, FITC-BSA (Bos taurus, UniProt P02769); experiment: MST binding to FITC-BSA; design: species or system bovine; details: 0.41 μM BSA
T2 construct: purchased Millipore Sigma-Aldrich
Method: Herein, a commercial FITC labeling kit (Section 3) was used to fluorescently tag both IFN- α 2b and BSA. Typically, in the labeling process, one amine per protein is labeled, statistically distributing the position of the dye. […] The MST assay was performed as detailed in Section 3. The solutions were prepared with a concentration of IFN- α 2b and BSA fixed at 0.41 μ M in water. For IFN- α 2b a concentration of 2.7 μ M was also prepared to compare it with previous results on MST-binding between FILs and IFN- α 2b fluorescently labeled with a different tag. In each run of MST, a maximum concentration of a ligand is selected and consecutively diluted in sixteen capillaries. […] The experimental conditions of the MST assay only allow the study of the aggregation phenomenon individually for the first CAC.
Microscale thermophoresis (MST) measurements of the dye-labeled protein were used to conduct binding investigations. […] MST tests were conducted in a monolith NT.115 (blue/red) in accordance with the NanoTemper Technologies methodology. Medium MST power and 20% LED power (nano-blue) were set as the instrument’s default settings. For every MST measurement, a PBS buffer was used. The concentration of FITC-BSA was fixed at 0.4 μ M and FITC-IFN- α 2b was tested under two different concentrations (of 0.4 and 2.7 μ M). The ligand was used to create a set of 16 1:1 dilutions, with the starting ligand concentrations ranging from 10 to 400 mM. The typical parameters for MST traces were used for recording: […], 30 s MST power on, and 5 s MST power off. The data from three independently conducted pipetted experiments were examined using NanoTemper Technologies’ MO.Affinity Analysis software, version 2.3.

IFN-α2b [4] = biological target: T3, IFN-α2b (Homo sapiens, UniProt P01563); experiment: Far-UV CD secondary structure of IFN-α2b (CONTIN-LL deconvolution); assay type: physicochemical
T3 construct: single non-glycosylated polypeptide chain with a molecular weight of 19 kDa, comprising 165 amino acids; purchased Millipore Sigma-Aldrich SRP4595-100UG; host or cells: E. coli
From the text: Circular dichroism (CD) is widely used to study the secondary structures of proteins, peptides and nucleic acids, because it requires a low concentration sample, is a nondestructive method, allows studying a wide range of variables (temperature, pH, etc.), and provides information on the effect of added ligands on protein folding and interactions.
as §1, with “BSA was fixed at 1 mg/mL, solvent concentrations ranging from 0.1 to 200 mM were used, and the spectra were translated to MRE after being expressed in terms of molar ellipticity.” left out

IFN-α2b [5] = biological target: T3, IFN-α2b; experiment: CD thermal unfolding (Tm) of IFN-α2b; assay type: physicochemical
Method: The same analyses attained for 208 nm and 192 nm are illustrated in Figures S5 and S6 in the Supplementary Materials. The corresponding T m values are estimated by fitting to a sigmoid with four parameters (one-way ANOVA, significance level of 0.05) and summarized in Table S2 in the Supplementary Materials. The CD T m of 0.125 mg/mL native IFN- α 2b is in good agreement with what was previously reported. […] The estimated T m values are summarized in Table S2 in the Supplementary Materials. The same analysis is attained for 208 nm and 192 nm, as depicted in Figures S5 and S6 in the Supplementary Materials. All the CD T m results are summarized in Table S2 in the Supplementary Materials. The thermal stability assessed by far-UV CD is solely determined through the thermal decay of the alpha-helical structure.
The same analysis was attained for 208 nm and 192 nm as illustrated in Figure S13 in the Supplementary Materials. The corresponding T m values are depicted in Table 5, and were estimated by fitting a sigmoid with four parameters (one-way ANOVA, with a significance level of 0.05).

[6] = ref 44 (IFN-α2b), 91 (BSA), 96 (Lys); cited from earlier work
[7] = 0.125 mg/mL IFN-α2b in water, 25 °C
[8] = 0.099-0.12 mg/mL IFN-α2b in [N1112(OH)][C4F9SO3]-rich phase of BP#8

T3 sequence (P01563 24-188): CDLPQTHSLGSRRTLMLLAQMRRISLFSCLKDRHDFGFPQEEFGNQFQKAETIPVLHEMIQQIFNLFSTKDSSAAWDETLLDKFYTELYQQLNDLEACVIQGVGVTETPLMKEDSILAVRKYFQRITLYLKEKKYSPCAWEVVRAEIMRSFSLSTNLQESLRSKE
T1 sequence (P02769 25-607): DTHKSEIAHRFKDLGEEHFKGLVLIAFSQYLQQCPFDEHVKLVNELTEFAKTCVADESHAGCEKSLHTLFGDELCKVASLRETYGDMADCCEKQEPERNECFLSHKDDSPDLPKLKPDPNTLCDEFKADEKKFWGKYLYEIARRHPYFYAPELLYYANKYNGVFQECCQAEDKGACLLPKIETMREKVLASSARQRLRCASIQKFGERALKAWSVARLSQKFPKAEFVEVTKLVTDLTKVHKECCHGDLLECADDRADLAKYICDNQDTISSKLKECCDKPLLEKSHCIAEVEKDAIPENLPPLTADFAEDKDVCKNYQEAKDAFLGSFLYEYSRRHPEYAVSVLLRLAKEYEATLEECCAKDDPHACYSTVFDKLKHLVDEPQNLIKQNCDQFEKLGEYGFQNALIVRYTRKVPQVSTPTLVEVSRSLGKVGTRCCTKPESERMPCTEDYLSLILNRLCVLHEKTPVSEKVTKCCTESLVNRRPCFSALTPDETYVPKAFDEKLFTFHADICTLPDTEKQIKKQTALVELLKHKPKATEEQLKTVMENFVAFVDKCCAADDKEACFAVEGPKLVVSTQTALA
T2 sequence (P02769 25-607): as above

## C[N+](C)(C)CCO.C[N+](C)(C)CCO.O=P([O-])(O)O.O=P([O-])(O)O [[N1112(OH)][H2PO4], Choline ((2-hydroxyethyl)trimethylammonium) dihydrogen phosphate]
BSA [1]; 0.1 mM component
  Tm: 75.36 °C
  ΔG: 15.2 kcal/mol
  ΔHcal: 105.9 kcal/mol
  ΔHcal/ΔHvH: 0.949
  ΔHvH: 111.6 kcal/mol
  ΔS: 1.272 KJ/(mol.K)
BSA [1]; 1 mM component
  Tm: 81.59 °C
  ΔG: 18.02 kcal/mol
  ΔHcal: 112.4 kcal/mol
  ΔHcal/ΔHvH: 0.613
  ΔHvH: 183.3 kcal/mol
  ΔS: 1.325 KJ/(mol.K)
BSA [1]; 5 mM component
  Tm: 80.80 °C
  ΔG: 25.72 kcal/mol
  ΔHcal: 162.2 kcal/mol
  ΔHcal/ΔHvH: 1.081
  ΔHvH: 150 kcal/mol
  ΔS: 1.915 KJ/(mol.K)
BSA [1]; 10 mM component
  Tm: 73.90 °C
  ΔG: 17.42 kcal/mol
  ΔHcal: 122.8 kcal/mol
  ΔHcal/ΔHvH: 0.998
  ΔHvH: 123 kcal/mol
  ΔS: 1.479 KJ/(mol.K)
BSA [1]; tested concentration range vs water
  effect on BSA Tm (DSC): maintained
BSA [2]; 0.1 mM component
  Distorted Alpha Helix: 0.204
  Distorted Beta Sheet: 0.031
  Regular Alpha Helix: 0.397
  Regular Beta Sheet: 0.000
  Turns: 0.147
  Unordered: 0.221
BSA [2]; 1 mM component
  Distorted Alpha Helix: 0.210
  Distorted Beta Sheet: 0.023
  Regular Alpha Helix: 0.393
  Regular Beta Sheet: 0.000
  Turns: 0.132
  Unordered: 0.242
BSA [2]; 5 mM component
  Distorted Alpha Helix: 0.203
  Distorted Beta Sheet: 0.023
  Regular Alpha Helix: 0.377
  Regular Beta Sheet: 0.004
  Turns: 0.128
  Unordered: 0.265
BSA [2]; 25 mM component
  Distorted Alpha Helix: 0.195
  Distorted Beta Sheet: 0.029
  Regular Alpha Helix: 0.36
  Regular Beta Sheet: 0.015
  Turns: 0.136
  Unordered: 0.266
BSA [2]; 55 mM component
  Distorted Alpha Helix: 0.150
  Distorted Beta Sheet: 0.055
  Regular Alpha Helix: 0.242
  Regular Beta Sheet: 0.080
  Turns: 0.153
  Unordered: 0.320
BSA [2]; 90 mM component
  Distorted Alpha Helix: 0.171
  Distorted Beta Sheet: 0.044
  Regular Alpha Helix: 0.294
  Regular Beta Sheet: 0.057
  Turns: 0.145
  Unordered: 0.289
BSA [2]; 120 mM component
  Distorted Alpha Helix: 0.207
  Distorted Beta Sheet: 0.029
  Regular Alpha Helix: 0.396
  Regular Beta Sheet: 0.018
  Turns: 0.141
  Unordered: 0.208
BSA [2]; 200 mM component
  Distorted Alpha Helix: 0.202
  Distorted Beta Sheet: 0.032
  Regular Alpha Helix: 0.386
  Regular Beta Sheet: 0.021
  Turns: 0.146
  Unordered: 0.212
BSA [3]
  Tm, Ellipticity 192 nm: 65.691 °C
  Tm, Ellipticity 208 nm: 76.945 °C
  Tm, Ellipticity 222 nm: 66.702 °C
FITC-BSA; max. conc. first capillary 12.5 mM (monomer)
  Kd: no binding detected
FITC-BSA; max. conc. first capillary 400 mM (monomer)
  Kd: no binding detected

## Human interferon-alpha 2b [IFN-α2b]
IFN-α2b [4]; [7]
  Distorted Alpha Helix: 0.145
  Distorted Beta Sheet: 0.071
  Regular Alpha Helix: 0.289
  Regular Beta Sheet: 0.049
  Turns: 0.209
  Unordered: 0.238
IFN-α2b [4]; IFN-α2b in water, CD deconvolution
  predicted α-helical content: 0.44
IFN-α2b [5]; 0.125 mg/mL IFN-α2b in water
  Tm, Ellipticity 192 nm: 63.311 °C
  Tm, Ellipticity 208 nm: 66.156 °C
  Tm, Ellipticity 222 nm: 67.548 °C
IFN-α2b [5]; [8]
  Tm, Ellipticity 192 nm: 42.274 °C
  Tm, Ellipticity 208 nm: 71.217 °C
  Tm, Ellipticity 222 nm: 62.080 °C
[6]
  iso-electric point: around 5.9

## lysozyme
[6]
  iso-electric point: approximately 11.0
